Test results as given in patent US20240166631A1, “COMPOUND, METHOD FOR PRODUCING AND METHOD FOR STORING COMPOUND, METHOD FOR PRODUCING TARGETING AGENT, AND COMPOSITION” (NIHON MEDI-PHYSICS CO., LTD, priority 2021, published 2024).

Assay: Evaluation of storage stability: purity of stored solid DOTAGA-DBCO by HPLC area percentage
Format: physicochemical
Settings: for long-term storage stability (in words): refrigerating or freezing conditions, after 6 months storage
Experimental: Thereafter, the brown vial containing DOTAGA-DBCO was placed under each of the conditions: room temperature (Example 1: 21 to 25° C.); high temperature (Example 2: 40° C.); refrigerating (Example 3: 5° C.); and freezing (Example 4: -20° C.), and stored for a predetermined period.
Thereafter, the colorless transparent glass vial containing DOTAGA-DBCO was placed under the condition of room temperature (Example 5: 19 to 23° C.) and stored for a predetermined period.
Subsequently, DOTAGA-DBCO obtained by drying in the same manner as in Examples 1 to 4 was put in a brown vial, and the brown vial was placed under each of the conditions: room temperature (Comparative Example 1: 21 to 25° C.); and high temperature (Comparative Example 2: 40° C.), and stored for a predetermined period.
For DOTAGA-DBCOs in each of Examples and Comparative Examples, the purity was measured by the following measurement method at each time point: at the start of storage, after 7 days storage, after 1 month storage, after 3 months storage, and after 6 months storage. The smaller deterioration in purity with respect to the purity at the start of storage, the more excellent the storage stability.
1.0 mg of the objective compound was precisely weighed. For Examples 1 and 2 and Comparative Examples 1 and 2, a mixture of 10 mmol/L ammonium formate solution (pH 3.0)/acetonitrile for liquid chromatography (95:5) was added to make an exactly 10 mL sample solution. For Examples 3 and 4, a mixture of 10 mmol/L ammonium formate solution (pH 3.0)/methanol for liquid chromatography (95:5) was added to make an exactly 10 mL sample solution. For Example 5, methanol for liquid chromatography was added to make an exactly 10 mL sample solution.
For 10 μL of each of these sample solutions, high performance liquid chromatography measurement was conducted under the following conditions. The peak area of the sample solution was measured with automatic integration method, and the amount of these compounds was determined through area percentage method. Each sample solution was prepared one time and measured 3 times. The arithmetic average value of the three measurement results was defined as purity (%). Note that, at the start of storage, each sample solution was prepared and measured one time, respectively.
• Detector (1): ultraviolet absorptiometer (measurement wavelength: 290 nm, 308 nm) • Detector (2): ACQ-QDa (Positive scan: cone voltage 15 V, capillary voltage 0.8 V; Negative scan: cone voltage 15 V, capillary voltage 0.8 V, scanning range: m/z 50 to 1200) • Column: a stainless steel tube having an inner diameter of 4.6 mm and a length of 10 cm, packed with 3.5 μm octadecylsilylated silica gel for liquid chromatography (XBridge C18) • Column temperature: maintained at a constant temperature of about 25° C.
• Mobile phase: (Mobile phase A) 10 mmol/L ammonium formate solution (pH 3.0) and (Mobile phase B) acetonitrile were used for liquid feeding while controlling the concentration gradient (vol %) in the order of the following (i) to (v). The flow rate of each mobile phase was 1 mL/min.

[1] = storage conditions: room temperature
[2] = stored at 5° C. (refrigerating)

In the case of `O=C(O)CN1CCN(CC(=O)O)CCN(C(CCC(=O)NCCC(=O)N2Cc3ccccc3C#Cc3ccccc32)C(=O)O)CCN(CC(=O)O)CC1` (stereo not shown) [Comparative Example 1, DOTAGA-DBCO], the “Purity (%) of compound at storage start” value [1] is reported as 96.4%, the “Purity (%) of compound after 1 month” value (stored at room temperature) is reported as 90.9% and the “Purity (%) of compound after 7 days” value (stored at room temperature) is reported as 95.5%.

With `O=C(O)CN1CCN(CC(=O)O)CCN(C(CCC(=O)NCCC(=O)N2Cc3ccccc3C#Cc3ccccc32)C(=O)O)CCN(CC(=O)O)CC1` (stereo not shown) [Example 5, DOTAGA-DBCO] the “Purity (%) of compound at storage start” value [1] was 97.5%, the “Purity (%) of compound after 1 month” value (stored at room temperature) was 96.0% and the “Purity (%) of compound after 7 days” value (stored at room temperature) was 97.2%.

In the case of `O=C(O)CN1CCN(CC(=O)O)CCN(C(CCC(=O)NCCC(=O)N2Cc3ccccc3C#Cc3ccccc32)C(=O)O)CCN(CC(=O)O)CC1` (stereo not shown) [Example 3, DOTAGA-DBCO], the “long-term storage stability (in words)” value is reported as “purity at the start of storage is maintained even after 6 months storage”, the “Purity (%) of compound at storage start” value (storage conditions: 5° C. (refrigerating)) is reported as 96.9% and the “Purity (%) of compound after 1 month” value [2] is reported as 97.0%. The “Purity (%) of compound after 3 months” value [2] was 93.2%, the “Purity (%) of compound after 6 months” value [2] was 96.8% and the “Purity (%) of compound after 7 days” value [2] was 97.4%.

In the case of `O=C(O)CN1CCN(CC(=O)O)CCN(C(CCC(=O)NCCC(=O)N2Cc3ccccc3C#Cc3ccccc32)C(=O)O)CCN(CC(=O)O)CC1` (stereo not shown) [Example 2, DOTAGA-DBCO], the “Purity (%) of compound at storage start” value (storage conditions: 40° C.) is reported as 97.6%, the “Purity (%) of compound after 1 month” value (stored at 40° C.) is reported as 96.7% and the “Purity (%) of compound after 3 months” value (stored at 40° C.) is reported as 93.9%. The “Purity (%) of compound after 6 months” value (stored at 40° C.) was 92.0% and the “Purity (%) of compound after 7 days” value (stored at 40° C.) was 96.9%.

For `O=C(O)CN1CCN(CC(=O)O)CCN(C(CCC(=O)NCCC(=O)N2Cc3ccccc3C#Cc3ccccc32)C(=O)O)CCN(CC(=O)O)CC1` (stereo not shown) [Example 4, DOTAGA-DBCO], the “long-term storage stability (in words)” value was “purity at the start of storage is maintained even after 6 months storage”, the “Purity (%) of compound at storage start” value (storage conditions: −20° C. (freezing)) was 96.9% and the “Purity (%) of compound after 1 month” value (stored at −20° C. (freezing)) was 97.6%. For the same compound, the “Purity (%) of compound after 3 months” value (stored at −20° C. (freezing)) was 93.5%, the “Purity (%) of compound after 6 months” value (stored at −20° C. (freezing)) was 95.5% and the “Purity (%) of compound after 7 days” value (stored at −20° C. (freezing)) was 97.4%.

For `O=C(O)CN1CCN(CC(=O)O)CCN(C(CCC(=O)NCCC(=O)N2Cc3ccccc3C#Cc3ccccc32)C(=O)O)CCN(CC(=O)O)CC1` (stereo not shown) [Comparative Example 2, DOTAGA-DBCO], the “Purity (%) of compound at storage start” value (storage conditions: 40° C.) was 96.4%, the “Purity (%) of compound after 1 month” value (stored at 40° C.) was 52.2% and the “Purity (%) of compound after 7 days” value (stored at 40° C.) was 86.1%.

In the case of `O=C(O)CN1CCN(CC(=O)O)CCN(C(CCC(=O)NCCC(=O)N2Cc3ccccc3C#Cc3ccccc32)C(=O)O)CCN(CC(=O)O)CC1` (stereo not shown) [Example 1, DOTAGA-DBCO], the “Purity (%) of compound at storage start” value [1] is reported as 97.6%, the “Purity (%) of compound after 1 month” value (stored at room temperature) is reported as 96.9% and the “Purity (%) of compound after 3 months” value (stored at room temperature) is reported as 95.7%. For the same compound, the “Purity (%) of compound after 6 months” value (stored at room temperature) was 93.6% and the “Purity (%) of compound after 7 days” value (stored at room temperature) was 97.1%.
